Data: PubChem BioAssay (NCI)
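A five-concentration, 48-hour dose response in 96-well plates underlies each endpoint, interpolated linearly between surrounding concentrations. GI50: concentration for 50% inhibition of growth. The concentration for full growth arrest is given as TGI.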

What was measured:
Assay in all cases: NCI-60 cell line screen, 48 h
[1] = test system: 786-0 renal
[2] = test system: A498 renal
[3] = test system: A549 NSCLC
[4] = test system: ACHN renal
[5] = test system: BT-549 breast
[6] = test system: CAKI-1 renal
[7] = test system: CCRF-CEM leukemia
[8] = test system: COLO 205 colon
[9] = test system: DU-145 prostate
[10] = test system: EKVX NSCLC
[11] = test system: HCC-2998 colon
[12] = test system: HCT-116 colon
[13] = test system: HCT-15 colon
[14] = test system: HL-60(TB) leukemia
[15] = test system: HOP-62 NSCLC
[16] = test system: HOP-92 NSCLC
[17] = test system: HS 578T breast
[18] = test system: HT29 colon
[19] = test system: IGROV1 ovarian
[20] = test system: K-562 leukemia
[21] = test system: KM12 colon
[22] = test system: LOX IMVI melanoma
[23] = test system: M14 melanoma
[24] = test system: MALME-3M melanoma
[25] = test system: MCF7 breast
[26] = test system: MDA-MB-231 breast
[27] = test system: MDA-MB-435
[28] = test system: MOLT-4 leukemia
[29] = test system: NCI-H226 lung
[30] = test system: NCI-H23 lung
[31] = test system: NCI-H460 lung
[32] = test system: NCI-H522 lung
[33] = test system: NCI/ADR-RES ovarian
[34] = test system: OVCAR-3 ovarian
[35] = test system: OVCAR-4 ovarian
[36] = test system: OVCAR-5 ovarian
[37] = test system: OVCAR-8 ovarian
[38] = test system: PC-3 prostate
[39] = test system: RPMI-8226 leukemia
[40] = test system: RXF 393 renal
[41] = test system: SF-268 CNS
[42] = test system: SF-295 CNS
[43] = test system: SF-539 CNS
[44] = test system: SK-MEL-2 melanoma
[45] = test system: SK-MEL-28 melanoma
[46] = test system: SK-MEL-5 melanoma
[47] = test system: SK-OV-3 ovarian
[48] = test system: SN12C renal
[49] = test system: SNB-19 CNS
[50] = test system: SNB-75 CNS
[51] = test system: SR leukemia
[52] = test system: SW-620 colon
[53] = test system: T-47D breast
[54] = test system: TK-10 renal
[55] = test system: U251 CNS
[56] = test system: UACC-257 melanoma
[57] = test system: UACC-62 melanoma
[58] = test system: UO-31 renal

For O=c1cc(-c2cccc3c2Sc2ccccc2S3)oc(N2CCOCC2)c1, the GI50 [1] was 4.05 µM, the TGI [1] was 18.3 µM and the GI50 [2] was 0.323 µM. For the same compound, the TGI [2] was 3.79 µM, the GI50 [3] was 10.4 µM and the TGI [3] was 26.7 µM. The GI50 [4] was 11.4 µM, the TGI [4] was 26.5 µM and the GI50 [5] was 4.25 µM. For the same compound, the TGI [5] was 17 µM, the GI50 [6] was 5.3 µM and the TGI [6] was 18.9 µM. It also gave a GI50 [7] of 21.1 µM, a TGI [7] greater than 55.8 µM and a GI50 [8] of 11.5 µM. The TGI [8] was 26.3 µM, the GI50 [9] was 8.19 µM and the TGI [9] was 20.5 µM. The GI50 [10] was 10.2 µM, the TGI [10] was 25 µM and the GI50 [11] was 11.6 µM. It also gave a TGI [11] of 25.8 µM, a GI50 [12] of 9.55 µM and a TGI [12] of 22.6 µM. It also gave a GI50 [13] of 8.68 µM, a TGI [13] of 24.3 µM and a GI50 [14] of 11.6 µM. For the same compound, the TGI [14] was 32.3 µM, the GI50 [15] was 10.9 µM and the TGI [15] was 23 µM. The GI50 [16] was 6.91 µM, the TGI [16] was 21.9 µM and the GI50 [17] was 3.08 µM. For the same compound, the TGI [17] was 19.5 µM, the GI50 [18] was 8.82 µM and the TGI [18] was 23.5 µM. For the same compound, the GI50 [19] was 4.08 µM, the TGI [19] was 17.7 µM and the GI50 [20] was 5.98 µM. For the same compound, the TGI [20] was 30.9 µM, the GI50 [21] was 8.04 µM and the TGI [21] was 21.4 µM. The GI50 [22] was 11.4 µM, the TGI [22] was 37.4 µM and the GI50 [23] was 11.1 µM. For the same compound, the TGI [23] was 24.3 µM, the GI50 [24] was 8.81 µM and the TGI [24] was 24.4 µM. It also gave a GI50 [25] of 5.94 µM, a TGI [25] of 22.4 µM and a GI50 [26] of 11.8 µM. It also gave a TGI [26] of 29.5 µM, a GI50 [27] of 3.54 µM and a TGI [27] of 13.5 µM. It also gave a GI50 [28] of 7.34 µM, a TGI [28] of 25.5 µM and a GI50 [29] of 10.8 µM. It also gave a TGI [29] of 34.3 µM, a GI50 [30] of 15.5 µM and a TGI [30] of 36.9 µM. It also gave a GI50 [31] of 12.7 µM, a TGI [31] of 31.2 µM and a GI50 [32] of 8.01 µM. It also gave a TGI [32] of 22.6 µM, a GI50 [33] of 12.8 µM and a TGI [33] of 42.9 µM. The GI50 [34] was 10.1 µM, the TGI [34] was 21.9 µM and the GI50 [35] was 11.2 µM. The TGI [35] was 31.9 µM, the GI50 [36] was 13.5 µM and the TGI [36] was 28.3 µM. The GI50 [37] was 12.9 µM, the TGI [37] was 45.7 µM and the GI50 [38] was 6.26 µM. For the same compound, the TGI [38] was 20.9 µM, the GI50 [39] was 9.83 µM and the TGI [39] was 43.4 µM. It also gave a GI50 [40] of 1.76 µM, a TGI [40] of 8.05 µM and a GI50 [41] of 7.76 µM. For the same compound, the TGI [41] was 24.2 µM, the GI50 [42] was 11.5 µM and the TGI [42] was 24.9 µM. For the same compound, the GI50 [43] was 11.6 µM, the TGI [43] was 25.1 µM and the GI50 [44] was 5.71 µM. The TGI [44] was 19.3 µM, the GI50 [45] was 11.1 µM and the TGI [45] was 24.1 µM. It also gave a GI50 [46] of 8.53 µM, a TGI [46] of 22 µM and a GI50 [47] of 13.4 µM. The TGI [47] was 27.3 µM, the GI50 [48] was 6.17 µM and the TGI [48] was 21.8 µM. For the same compound, the GI50 [49] was 13.9 µM, the TGI [49] was 33.6 µM and the GI50 [50] was 4.97 µM. For the same compound, the TGI [50] was 19.9 µM, the GI50 [51] was 4.21 µM and the TGI [51] was 27.3 µM. It also gave a GI50 [52] of 12.3 µM, a TGI [52] of 26.8 µM and a GI50 [53] of 3.69 µM. The TGI [53] was 18.2 µM, the GI50 [54] was 12.2 µM and the TGI [54] was 25 µM. For the same compound, the GI50 [55] was 8.94 µM, the TGI [55] was 21.7 µM and the GI50 [56] was 13.9 µM. For the same compound, the TGI [56] was 27.1 µM, the GI50 [57] was 6.55 µM and the TGI [57] was 22.1 µM. The GI50 [58] was 1.79 µM and the TGI [58] was 15.8 µM.

COc1cccc(NC(=O)c2sc3nc(C)c(C(O)c4ccccc4)cc3c2N)c1 (configuration not stated) gave a GI50 [1] of 0.665 µM, a TGI [1] of 26.6 µM and a GI50 [2] of 0.0971 µM. The TGI [2] was 0.615 µM, the GI50 [3] was 0.402 µM and the TGI [3] was 21 µM. For the same compound, the GI50 [4] was 0.601 µM, the TGI [4] was 18.2 µM and the GI50 [5] was 0.335 µM. It also gave a TGI [5] of 19.5 µM, a GI50 [6] of 0.347 µM and a TGI [6] of 18 µM. It also gave a GI50 [7] of 0.219 µM, a TGI [7] greater than 79.7 µM and a GI50 [8] of 2.42 µM. It also gave a TGI [8] of 13.6 µM, a GI50 [9] of 0.382 µM and a TGI [9] of 19.6 µM. The GI50 [10] was 0.76 µM, the TGI [10] was 34.8 µM and the GI50 [11] was 0.359 µM. For the same compound, the TGI [11] was 4.05 µM, the GI50 [12] was 0.241 µM and the TGI [12] was 12 µM. For the same compound, the GI50 [13] was 0.0924 µM, the TGI [13] was 12.4 µM and the GI50 [14] was 0.231 µM. For the same compound, the TGI [14] was 0.742 µM, the GI50 [15] was 0.481 µM and the TGI [15] was 26.2 µM. It also gave a GI50 [16] of 4.21 µM, a TGI [16] of 26.9 µM and a GI50 [17] of 0.222 µM. It also gave a TGI [17] of 3.21 µM, a GI50 [18] of 0.3 µM and a TGI [18] of 14 µM. For the same compound, the GI50 [19] was 0.441 µM, the TGI [19] was 16.8 µM and the GI50 [20] was 0.117 µM. For the same compound, the TGI [20] was greater than 100 µM, the GI50 [21] was 0.337 µM and the TGI [21] was 11.8 µM. For the same compound, the GI50 [22] was 0.264 µM, the TGI [22] was 18.6 µM and the GI50 [23] was 0.199 µM. For the same compound, the TGI [23] was 17.4 µM, the GI50 [24] was 0.58 µM and the TGI [24] was 27.4 µM. It also gave a GI50 [25] of 0.0698 µM, a TGI [25] of 13.9 µM and a GI50 [26] of 0.345 µM. It also gave a TGI [26] of 33.5 µM, a GI50 [27] of 0.0251 µM and a TGI [27] of 0.0751 µM. For the same compound, the GI50 [28] was 0.378 µM, the TGI [28] was 19.5 µM and the GI50 [29] was 2.03 µM. The TGI [29] was 23.7 µM, the GI50 [30] was 0.401 µM and the TGI [30] was 15.8 µM. It also gave a GI50 [31] of 0.324 µM, a TGI [31] of 3.21 µM and a GI50 [32] of 0.308 µM. It also gave a TGI [32] of 14.1 µM, a GI50 [33] of 0.245 µM and a TGI [33] of 0.941 µM. The GI50 [34] was 0.255 µM, the TGI [34] was 2.93 µM and the GI50 [35] was 0.811 µM. It also gave a TGI [35] of 32.7 µM, a GI50 [36] of 0.611 µM and a TGI [36] of 19.2 µM. It also gave a GI50 [37] of 0.469 µM, a TGI [37] greater than 66.7 µM and a GI50 [38] of 0.49 µM. For the same compound, the TGI [38] was 22.3 µM, the GI50 [39] was 0.357 µM and the TGI [39] was 12.3 µM. For the same compound, the GI50 [40] was 0.226 µM, the TGI [40] was 2.75 µM and the GI50 [41] was 1.05 µM. The TGI [41] was 30.9 µM, the GI50 [42] was 0.276 µM and the TGI [42] was 6.82 µM. For the same compound, the GI50 [43] was 0.185 µM, the TGI [43] was 0.598 µM and the GI50 [44] was 0.96 µM. The TGI [44] was 29.7 µM, the GI50 [45] was 3.65 µM and the TGI [45] was 35.3 µM. For the same compound, the GI50 [46] was 0.287 µM, the TGI [46] was 1.32 µM and the GI50 [47] was 0.658 µM. It also gave a TGI [47] of 23.8 µM, a GI50 [48] of 0.421 µM and a TGI [48] of 17.6 µM. The GI50 [49] was 0.467 µM, the TGI [49] was 74.6 µM and the GI50 [50] was 0.174 µM. It also gave a TGI [50] of 4.55 µM, a GI50 [51] of 0.0503 µM and a TGI [51] of 22.1 µM. The GI50 [52] was 0.228 µM, the TGI [52] was 27.1 µM and the GI50 [53] was 0.737 µM. For the same compound, the TGI [53] was 28.4 µM, the GI50 [54] was 2.03 µM and the TGI [54] was 65.1 µM. The GI50 [55] was 0.289 µM, the TGI [55] was 22.3 µM and the GI50 [56] was 2.72 µM. The TGI [56] was 35.1 µM, the GI50 [57] was 0.503 µM and the TGI [57] was 17.3 µM. The GI50 [58] was 0.85 µM and the TGI [58] was 18.9 µM.
